# From US20200262877A1, “ION CHANNEL-BINDING PEPTIDES AND METHODS OF USE THEREOF” (priority 2017, published 2020)
# System: panel of 20 ion channels
# Type: cell-based
# Settings: potassium channels of the panel; 0.2 or 20 μM; FIG. 2
# Protocol: This example describes a method for assaying ion channel activity in cells.
# Peptides were screened in duplicate at final concentrations of 20 μM and 200 nM, as determined by amino acid analysis, and diluted into HEPES buffered physiological saline (HBPS). HEK293 or CHO cells from the American Type Culture Collection (ATCC) were transfected with the appropriate ion channel before use. HEK293 cells were grown in Dulbecco's Modified Eagle Medium/Nutrient Mixture F-12, and CHO cells were cultured in Ham's F-12 media. All cultures were supplemented with 10% fetal bovine serum, 100 U/ml penicillin G, 100 μg/ml streptomycin sulfate, and the appropriate selection antibiotics. Prior to use, cells were washed twice with Hank's Balanced Salt Solution, and treated with Accutase cell detachment solution (Sigma-Aldrich). Cells were then washed. Peptides and controls were incubated with cells for at least five minutes.
# Percent inhibition was defined as: (1-(Ipeptide/Icontrol))×100%).
# Percent values were calculated using the following formula: % activation=(IPeptide/Icontrol)×100%, where IPeptide is the current produced by co-application a peptide with agonist, and Icontrol refers to the current produced by stimulation in control. Control used for each ion channel is the reference compound matched to a particular channel, as illustrated in TABLE 10 below.
sequence,measurement,value
GSQIDTNVKCSGSSKCVKICIDRYNTRGAKCINGRCTCYP [SEQ ID NO: 20],Activity on potassium channels,showed activity on various subsets of potassium channels
GSVVIGQRCYRSPDCYSACKKLVGKATGKCTNGRCDC [SEQ ID NO: 26],Activity on potassium channels,showed activity on various subsets of potassium channels
